One test concerns the target T1, AOC2 (Homo sapiens, UniProt O75106).
T1 construct: host or cells: HEK293 cells (transient transfection), cell homogenate
T1 sequence (O75106 1-756): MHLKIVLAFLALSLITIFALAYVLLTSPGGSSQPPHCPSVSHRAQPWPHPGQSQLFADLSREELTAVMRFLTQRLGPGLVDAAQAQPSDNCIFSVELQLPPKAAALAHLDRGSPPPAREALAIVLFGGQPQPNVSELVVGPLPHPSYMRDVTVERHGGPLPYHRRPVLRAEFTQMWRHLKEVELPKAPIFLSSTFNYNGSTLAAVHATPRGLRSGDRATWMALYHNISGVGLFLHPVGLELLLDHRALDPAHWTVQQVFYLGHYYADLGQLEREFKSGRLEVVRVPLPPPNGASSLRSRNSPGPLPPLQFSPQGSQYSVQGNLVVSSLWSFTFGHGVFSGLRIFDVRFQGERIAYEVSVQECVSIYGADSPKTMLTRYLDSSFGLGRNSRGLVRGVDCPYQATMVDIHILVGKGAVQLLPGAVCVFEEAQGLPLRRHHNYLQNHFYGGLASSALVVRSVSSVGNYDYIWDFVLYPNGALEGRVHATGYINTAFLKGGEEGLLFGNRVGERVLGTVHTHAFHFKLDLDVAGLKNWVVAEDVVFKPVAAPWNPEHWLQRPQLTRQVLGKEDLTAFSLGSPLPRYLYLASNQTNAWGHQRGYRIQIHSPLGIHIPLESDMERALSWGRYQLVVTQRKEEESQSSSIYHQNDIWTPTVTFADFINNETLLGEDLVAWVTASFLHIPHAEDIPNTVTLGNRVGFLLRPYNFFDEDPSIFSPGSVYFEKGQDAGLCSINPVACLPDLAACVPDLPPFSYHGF
The test is described as follows: AOC2 biochemical assay (Amplex Red). The method, then: The Amplex® Red Assay (commercially available from Thermo Fisher Scientific) provides a sensitive method for the detection of H2O2 generated during enzymatic reactions like the amine oxidation catalyzed by AOC2. […] An aliquot of 5 μL of the compound dilution is added to a 96 well plate (flat bottom F, black, GREINER bio-one, #655900) in a DMSO concentration of 2%. […] Cells are cultured for 3 days in EMEM culture medium containing 10% FCS (#04-00-1A, Biological Industries). After washing twice with ice cold PBS, cells are lysed by mechanic homogenation and cleared supernatants are shock frozen in liquid nitrogen and stored at -80° C. For the determination of AOC2 enzymatic activity cell lysates are thawed on ice and 1:1 diluted with reaction buffer. An Aliquot of 45 μL is added to the compound dilution and incubated for 30 min at 37° C. The enzymatic reaction is started with the addition of 50 μL of Amplex® Red reaction mix (final assay concentration: 100 mM sodiumphosphate, 120 μM Amplex® Red reagent (#A22177 Molecular Probes), 1.5 U/mL Horseradish Peroxidase (#P8375 Sigma-Aldrich), 2 mM phenylethylamine (#[…] Sigma-Aldrich), 0.05% Pluronic F-127 (#P3000MP Sigma-Aldrich), pH 7.4, 37° C.). The turnover per time of the substrate is determined directly with a fluorescence reader (Ex 540 nm/Em 590 nm) like Envision 2104 Multilabel Reader (PERKIN ELMER) for 60 min. (cf. Anal Biochem (1997) 253:169-174; Anal Biochem (1997) 253:162-168)

The target of a further test is T2, AOC1 (Homo sapiens, UniProt P19801).
T2 construct: purchased R&D Systems 8297-AO-010
T2 sequence (P19801 20-751): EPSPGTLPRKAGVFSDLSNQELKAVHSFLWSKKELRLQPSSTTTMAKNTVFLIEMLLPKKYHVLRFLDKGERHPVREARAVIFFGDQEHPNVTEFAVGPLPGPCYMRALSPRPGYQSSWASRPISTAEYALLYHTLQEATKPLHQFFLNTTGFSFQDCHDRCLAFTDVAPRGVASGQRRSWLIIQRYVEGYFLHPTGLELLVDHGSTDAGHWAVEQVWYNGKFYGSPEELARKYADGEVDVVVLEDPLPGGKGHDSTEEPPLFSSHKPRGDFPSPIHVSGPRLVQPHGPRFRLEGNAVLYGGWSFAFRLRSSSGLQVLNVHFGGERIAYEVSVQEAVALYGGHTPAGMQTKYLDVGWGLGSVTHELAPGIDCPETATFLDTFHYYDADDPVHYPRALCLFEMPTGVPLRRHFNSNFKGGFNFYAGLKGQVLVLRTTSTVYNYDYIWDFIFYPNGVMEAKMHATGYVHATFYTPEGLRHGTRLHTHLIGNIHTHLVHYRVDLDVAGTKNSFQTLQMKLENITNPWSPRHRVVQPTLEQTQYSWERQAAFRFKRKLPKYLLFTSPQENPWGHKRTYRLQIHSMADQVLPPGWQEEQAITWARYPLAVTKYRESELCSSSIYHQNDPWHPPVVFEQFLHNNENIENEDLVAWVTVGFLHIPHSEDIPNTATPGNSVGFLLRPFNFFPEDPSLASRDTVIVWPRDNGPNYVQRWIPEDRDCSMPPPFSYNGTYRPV
In words: AOC1 biochemical assay (Amplex Red). The method, then: The Amplex® Red Assay (available from Thermo Fisher Scientific) provides a sensitive method for the detection of H2O2 generated during enzymatic reactions like the amine oxidation catalyzed by AOC1. The assay reagent is a colorless substrate (N-acetyl-3,7-dihydroxyphenoxazine) that reacts in a 1:1 stoichiometry with hydrogen peroxide (H2O2) to produce the fluorescent dye resorufin (7-hydroxyphenoxazin-3-one, excitation/emission maxima=570/585 nm).
An aliquot of 3 μL of the compound dilution is added to a 384 well plate (Optiplate, PS, flat bottom F, black, PERKIN ELMER, #6007270) in a DMSO concentration of 6.6%.
An AOC1 enzyme aliquot (#8297-AO-010, R&D Systems) is thawed on ice, diluted in reaction buffer and added in a volume of 7 μL to the wells to give a final assay concentration of 1 ng/well. After incubation of inhibitor and enzyme for 30 minutes at 37° C., the enzymatic reaction is started with the addition of 10 μL of Amplex® Red reaction mix (final assay concentration: 100 mM sodiumphosphate, 120 μM Amplex® Red reagent (#A22177 Molecular Probes), 1.5 U/mL Horseradish Peroxidase (#P8375 Sigma-Aldrich), 200 μM putrescine (#P7505 Sigma-Alrdich), 0.05% Pluronic F-127 (#P3000MP Sigma-Aldrich), pH 7.4, 37° C.).
After an incubation for 30 minutes at 37° C. the turnover of the substrate is determined directly (or after the addition of an excess of an amine-oxidase inhibitor) with a fluorescence reader (Ex 540 nm/Em 590 nm) like Envision 2104 Multilabel Reader (PERKIN ELMER).

[1] abbreviates: comparison table, read-out: IC50 AOC1.

Each structure is given as a SMILES string. Counter-ions that a name gives are not always drawn. Like-named read-outs stand apart in the source and are kept apart here.

Regarding `NC/C(=C/F)COc1ccc(S(=O)(=O)N2CCC(C(=O)N3CCC3)CC2)cn1` [Example 10], the values for the IC50 at AOC2 (read-out: AOC2 IC50) and on AOC1 (read-out: AOC1 IC50) were 0.214 µM and 3180 nM, respectively.
For `CN(C)C(=O)[C@H]1CCN(S(=O)(=O)c2ccc(OC/C(=C\F)CN)nc2)C1` [Example 4] the same measures were 0.394 µM and 3420 nM.
Take `NC/C(=C/F)COc1cnc(N2CCC(O)CC2)nc1` [reference compound]: the IC50 on AOC1 (setting [1]) is 66 nM.
On to `CNC(=O)[C@H]1[C@@H]2CN(S(=O)(=O)c3ccc(OC/C(=C\F)CN)nc3)C[C@@H]21` [Example 27], for which the IC50 was 0.062 µM at AOC2 (read-out: AOC2 IC50) and 1260 nM on AOC1 (read-out: AOC1 IC50).
Turning to `COC1CN(S(=O)(=O)c2ccc(OC/C(=C\F)CN)nc2)C1` [Example 33], the IC50 was found to be 0.055 µM on AOC2 (comparison table, read-out: IC50 AOC2) and 1140 nM on AOC1 (read-out: AOC1 IC50).
Turning to `NC/C(=C/F)COc1cnc(N2CC[C@H](O)C2)nc1` [Z isomer of example 6 of WO 2018/027892, reference compound], the IC50 at AOC2 (read-out: IC50 AOC2) was 2.73 µM; on AOC1 (read-out: IC50 AOC1), 70 nM.
Take `NC/C(=C/F)COc1ccc(S(=O)(=O)N2CC(C(N)=O)C2)cn1` [Example 20]: the IC50 at AOC2 (read-out: AOC2 IC50) came to 0.119 µM; on AOC1 (read-out: AOC1 IC50), 1360 nM.
Regarding `COC(=O)C1(C)CCN(S(=O)(=O)c2ccc(OC/C(=C\F)CN)nc2)CC1` [Example 36], the IC50 at AOC2 (read-out: AOC2 IC50) was found to be 0.003 µM; on AOC1 (read-out: AOC1 IC50), 1380 nM.
In the case of `NC/C(=C/F)COc1ccc(S(=O)(=O)N2CC(C3CCN(C(=O)C4CC4)CC3)C2)cn1` [Example 26], the IC50 was found to be 0.063 µM on AOC2 (read-out: AOC2 IC50) and 911 nM on AOC1 (read-out: AOC1 IC50).
On to `NC/C(=C/F)COc1ccc(S(=O)(=O)N2C[C@H]3C[C@@]3(C(=O)N3CCOCC3)C2)cn1` [Example 22], for which the IC50 worked out at 0.093 µM on AOC2 (read-out: AOC2 IC50) and 13700 nM on AOC1 (read-out: AOC1 IC50).
Take `NC/C(=C/F)COc1ccc(S(=O)(=O)N2C[C@@H]3[C@H](C2)[C@H]3C(=O)O)cn1` [Example 45, trans-3-[6-((Z)-2-Aminomethyl-3-fluoro-allyloxy)-pyridine-3-sulfonyl]-3-aza-bicyclo[3.1.0]hexane-6-carboxylic acid trifluoroacetate]: the IC50 at AOC2 (read-out: AOC2 IC50) came out at 0.07 µM; at AOC1 (read-out: AOC1 IC50) it was 37600 nM.
The matching figures for `NC/C(=C/F)COc1ccc(S(=O)(=O)N2CC[C@@H](C(N)=O)C2)cn1` [Example 31]: 0.04 µM and 869 nM.
Consider `NC/C(=C/F)COc1ccc(S(=O)(=O)N2CCC(C(=O)N3CCOCC3)CC2)cn1` [Example 3], for which the IC50 amounted to 23.4 µM at AOC2 (value in μM, read-out: AOC2 IC50) and 16400 nM at AOC1 (read-out: AOC1 IC50).
Consider `CC1(O)CCN(S(=O)(=O)c2ccc(OC/C(=C\F)CN)nc2)CC1` [Example 41], for which the IC50 is 0.024 µM on AOC2 (read-out: AOC2 IC50) and 133 nM on AOC1 (read-out: AOC1 IC50).
Regarding `NC/C(=C/F)COc1ccc(S(=O)(=O)N2CC[C@H](O)C2)cn1` [Example 43, (S)-1-[6-(Z)-2-Aminomethyl-3-fluoro-allyloxy]-pyridine-3-sulfonyl]-pyrrolidin-3-ol trifluoroacetate], the results for the IC50 at AOC2 (read-out: IC50 AOC2) and at AOC1 (read-out: IC50 AOC1) were 0.21 µM and 964 nM, respectively. Moreover, the “factor less active on AOC1 than the comparison compound” value on AOC1 (versus the Z isomer of example 6 of WO 2018/027892) stood at 14.
As to `NC/C(=C/F)COc1ccc(S(=O)(=O)N2CCC(O)(C(F)(F)F)CC2)cn1` [Example 42], the figures for the IC50 on AOC2 (read-out: AOC2 IC50) and on AOC1 (read-out: AOC1 IC50) were 0.009 µM and 2360 nM, respectively.
The matching figures for `CC(C)(O)CNC(=O)[C@H]1CCN(S(=O)(=O)c2ccc(OC/C(=C\F)CN)nc2)C1` [Example 2]: 0.272 µM and 8140 nM.
On to `NC/C(=C/F)COc1ccc(S(=O)(=O)N2CC[C@H](O)C2)cc1` [Reference compound B, reference compound], for which, at AOC1 (setting [1]), the IC50 was 1210 nM.
For `CN1CCN(C2CCN(S(=O)(=O)c3ccc(OC/C(=C\F)CN)nc3)CC2)C1=O` [Example 1, 1-{1-[6-((Z)-2-Aminomethyl-3-fluoro-allyloxy)-pyridine-3-sulfonyl]-piperidine-4-yl}-3-methyl-imidazolidin-2-one trifluoroacetate], the IC50 came to 0.12 µM at AOC2 (read-out: AOC2 IC50) and 15300 nM on AOC1 (read-out: AOC1 IC50).
The matching figures for `COC(=O)CC1CCN(S(=O)(=O)c2ccc(OC/C(=C\F)CN)nc2)CC1` [Example 32]: 0.039 µM and 5450 nM.
For `CNC(=O)[C@@H]1[C@@H]2CN(S(=O)(=O)c3ccc(OC/C(=C\F)CN)nc3)C[C@@H]21` [Example 5] the same measures were 0.345 µM and 1220 nM.
For the molecule `CC(=O)N[C@H]1CCCN(S(=O)(=O)c2ccc(OC/C(=C\F)CN)nc2)C1` [Example 6], the IC50 came to 0.285 µM on AOC2 (read-out: AOC2 IC50) and 678 nM at AOC1 (read-out: AOC1 IC50).
`NC/C(=C/F)COc1ccc(S(=O)(=O)N2CCC(CC(=O)N3CC(O)C3)CC2)cn1` [Example 55]: at AOC1 (read-out: AOC1 IC50), the IC50 was found to be 27100 nM.
Still for that read-out and setting: the figure for `CC1(C(=O)NCCF)CCN(S(=O)(=O)c2ccc(OC/C(=C\F)CN)nc2)CC1` [Example 53] is 14600 nM; for `NC/C(=C/F)COc1ccc(S(=O)(=O)N2CCC(CC(=O)NCCO)CC2)cn1` [Example 52] it is 15100 nM; for `CC1(C(=O)NC2CC2)CCN(S(=O)(=O)c2ccc(OC/C(=C\F)CN)nc2)CC1` [Example 56] it is 11500 nM.
`COCCNC(=O)CC1CCN(S(=O)(=O)c2ccc(OC/C(=C\F)CN)nc2)CC1` [Example 54]: the half-maximal inhibitory concentration (IC50) on AOC1 (read-out: AOC1 IC50) is 10500 nM.
Same read-out and setting: to `CC(F)(F)CNC(=O)CC1CCN(S(=O)(=O)c2ccc(OC/C(=C\F)CN)nc2)CC1` [Example 51] belongs 10300 nM.

Values taken from US12213970B2, “Pyridinyl sulfonamide derivatives, pharmaceutical compositions and uses thereof” (Boehringer Ingelheim International GmbH, priority 2018, dated 2025).
